Data on 2 compounds can be found in patent publication US20160175223A1, “ANTI-AGING COMPOSITIONS COMPRISING BILE ACID-FATTY ACID CONJUGATES” (GALDERM THERAPEUTICS LTD., priority 2013, published 2016).

For series [1], the system named is ABCA1. The series can be described thus: Taqman gene expression in Epiderm FT skin culture: ABCA1 mRNA. The format is cell-based, human. The settings on record: 0.5% (5000 ug/mL) in DMSO, 24 hours post-application, vs DMSO control. How it is done: A full-thickness in vitro skin culture model, Epiderm FT (MatTek, MA), was treated with Steamchol. Steamchol in DMSO (0.5%, 5000 ug/mL) was applied to the surface of each test culture and cells were collected 24 hours post-application. Control cells were similarly treated with DMSO without Steamchol.
Tissues were collected in RNA later for gene expression analysis. Gene expression was analyzed using validated Taqman gene expression assays in Taqman Low Density Array (TLDA) format. 94 genes that regulate a variety of known functions in skin were analyzed including the ABCA1 and SCD1 genes. The experimental set up was conducted in a 96-well format using validated Taqman gene expression assays. Each gene was assayed in duplicates. Statistics were carried out using the StatMiner software v4.2 (unpaired t-tests, p≦0.05, N=4) to compare the Steamchol group to the DMSO control group.
A general note: Quantitative PCR measures a nucleic acid by following its amplification.

In a further series the test system is human skin fibroblasts. The series can be described thus: [3H] cholesterol efflux in skin fibroblasts. The format is cell-based. The settings on record: 20 hours incubation, compared to untreated cells. How it is done: (§1) Steamchol was incubated with human skin fibroblasts for 20 hours to measure cholesterol loading in the presence of [^3H] cholesterol. After series of washing and adding efflux containing cholesterol acceptors, medium was collected and centrifuged and cell associated cholesterol was compared to effluxed cholesterol in the presence and absence of the similar FABAC. This research project also included quantification of mRNA of ABCA1 and direct measurement of ABCA1.
(§2) Similarly, cells were pre-incubated with [^3H] cholesterol, washed four times and then placed in an incubation medium with or without Aramchol for 20 hours. Following the incubation, radioactivity was measured separately in the medium and in the cells. Cholesterol efflux percentage was calculated as radioactivity in medium divided by the total radioactivity (cells+medium).

The test system of series [2] is Full-thickness Epiderm cultures (EFT-400, MatTek). The series can be described thus: Previous viability assay. The format is cell-based. The settings on record: concentrations of 40.0, 13.3, 4.4, 1.5 ug/mL. From the text: (§3) Full-thickness Epiderm cultures (EFT-400, MatTek) were used to determine toxicity in response to topical application of a test material (Steamchol).

For series [3] the test system is unchanged. The series can be described thus: Cytotoxicity assay (MTT) after topical application to full-thickness skin cultures. The format is cell-based. The following applies: 24-hour exposure; for Cell Viability: 10 μL topical, MTT, vs untreated control. How it is done: as §3
The test material was provided as a powder. Test solutions were prepared by adding the appropriate amount of powdered material to 1 mL DMSO. Lower concentrations were made by serial dilution with 100% DMSO. The final test material concentrations and treatments are listed below: • 2% Steamchol (20,000 ug/mL) • 1% Steamchol (10,000 ug/mL) • 0.1% Steamchol (1000 ug/mL) • 0.01% Steamchol (100 ug/mL) • vehicle control (100% DMSO) • untreated control
Full-thickness skin cultures (EFT-400) were maintained as required to ensure viability; the cultures were equilibrated at 37° C. and 5% CO2 for 24 hours prior to application of test materials. Test material was applied to the surface of each culture using sterile techniques (10 μL applied to each culture). Two cultures were assigned to each treatment group. Two EFT cultures served as an untreated control (also referred to as negative control in FIG. 2), and two other EFT cultures served as a positive control (100 μL 1% Triton X-100).
Following a 24-hour incubation period with the test material, cultures were processed for cell toxicity analysis using an MTT [(3-4,5-dimethylthiazole-2-yl)2,5-diphenyltetrazoliumbromide] assay (reagents purchased from MatTek). Viable tissues converted MTT into a blue formazan salt that was detected by measuring absorbance at a specific wavelength of light (A570). Percent viability was calculated by comparing the A570 reading of the test cultures to the A570 of the untreated control culture, using the following formula: [Treated A570/Untreated A570]*100.

The subject of series [4] is ABCA1. The series can be described thus: Direct measurement of ABCA1 protein in skin fibroblasts. The format is cell-based, human. The following applies: efflux in the presence of FABAC, compared to untreated cells. How it is done: as §1, §2

As to `CCCCCCCCCCCCCCCCCC(=O)N[C@H]1CC[C@@]2(C)[C@@H](C1)C[C@@H](O)[C@@H]1[C@@H]2C[C@H](O)[C@]2(C)[C@@H]([C@H](C)CCC(=O)O)CC[C@@H]12` [Steamchol, 3β-stearylamido-7α,12α, dihidroxy-5β-cholan-24-oic acid], the “Change in mRNA levels of ABCA1” value with ABCA1 [1] is given as “No significant change”. In addition, in the series on human skin fibroblasts, the “Cholesterol efflux in fibroblasts” value was “significantly enhanced”. In addition, the “Toxicity in viability assay” value in series [2] is listed as “no toxicity was observed”. Besides, the “Cell Viability” value in series [3] (0.01% Steamchol (100 ug/mL) in DMSO) is on record as 100.41%; in series [3] (0.1% Steamchol (1000 ug/mL) in DMSO), 99.98%; in series [3] (1% Steamchol (10,000 ug/mL) in DMSO), 96.88%; in series [3] (2% Steamchol (20,000 ug/mL) in DMSO) it was 93.89%. Besides, in series [3] (all dilutions tested (0.01%-2% in DMSO)), the “Cell viability compared to the untreated control” value is on record as around 100%. Also, in the series with ABCA1 [4], the “ABCA1 protein concentration increase” value was “approximately 2 fold”.
For the compound `CCCCCCCCCCCCCCCCCCCC(=O)N[C@H]1CC[C@@]2(C)[C@@H](C1)C[C@@H](O)[C@@H]1[C@@H]2C[C@H](O)[C@]2(C)[C@@H]([C@H](C)CCC(=O)O)CC[C@@H]12` [Aramchol, 3β-arachidylamido-7α,12α, dihidroxy-5β-cholan-24-oic acid], the “Cholesterol efflux in fibroblasts” value in the series with human skin fibroblasts was “significantly enhanced”. Further, in the series with ABCA1 [4], the “ABCA1 protein concentration increase” value is reported as “approximately 2 fold”.
